This note sets out measurements from patent US20240181000A1, “LGG-DERIVED PEPTIDES AND METHODS OF USE THEREOF” (Ohio State Innovation Foundation, priority 2021, published 2024).

No end group written: not given here.

For series [1], the system named is commensal and probiotic bacteria. Kind of series: Effect against beneficial microbes. Type of series: cell-based. As to conditions: at MICs. As for the experimental part: Effect against beneficial microbes: Peptides (P1, P2, and P3) were tested against different commensal and probiotic bacteria to determine their specificity of activity as described previously. Peptides were added at their MICs to 100 μL of known concentration of bacterial cultures and cultures were incubated under required conditions. Following incubation, OD600 of cultures was measured to determine the effect of peptides on bacterial growth.

For a further series, the system named is APEC O78 membrane. In words: Bacterial cytological profiling (confocal microscopy). Type of series: cell-based, E. coli. As to conditions: 5×MIC, 3 h. As for the experimental part: Bacterial cytological profiling (BCP): To identify the mode of action (MOA) of peptides (P1, P2, and P3), BCP approach was used as described previously. […] Following incubation, cultures were centrifuged, and bacteria was resuspended in 100 μL sterile water. FM4-64 (1 μg/mL; Invitrogen™ Molecular Probes™) and Syto-9 (5 μM; Invitrogen™ Molecular Probes™) stains were added to the bacterial cultures and incubated at 4° C. for 45 mins with shaking at 150 rpm. The stained bacteria were centrifuged, pelleted, and resuspended in 10 μL sterile water. The bacterial suspension (3 μL) was transferred onto glass slides containing thin layer of 1.2% agar and 20% LB media for confocal microscopy. Microscopy was performed using Leica TCS SP6 confocal scanning microscope (FM4-64-excitation 515 nm and emission 640 nm: Syto-9-excitation 485 nm and emission 498 nm) at Molecular and Cellular Imaging Center (MCIC), The Ohio State University (mcic.osu.edu/microscopy). Untreated bacterial culture was used as control.

The subject of a further series is APEC O78. In words: Efficacy of peptides in chickens (oral, twice a day). The format is in vivo. The settings on record: for Reduction of APEC colonization in cecum: 7 dpi. As to the method: Peptides were administered through orally twice a day from day 1 to day 7 either at 50 mg/kg or 100 mg/kg dose. On day 2, chickens were infected orally with Rif^γ APEC O78 (1-2×10^9 CFU/chicken). At day 9, chickens were euthanized, necropsied and cecum and internal organs (lung, liver, heart, and kidney) were processed for quantification of APEC load. The body weight of chickens was measured at day 9.
Efficacy of peptides in chickens: Animal study was approved by The Ohio State University Institutional Animal Care and Use Committee (IACUC, protocol #2010 A00000149). Chickens were euthanized using CO2 following American Veterinary Medical Association (AVMA) guidelines. Standard animal husbandry practices were followed throughout the experiment. Feed and water were provided ad libitum. The efficacy of peptides (P1, P2, and P3) were assessed at 50 mg/kg and 100 mg/kg doses in two successive experiments using commercial broiler chickens (n=10/group) (Cobb & Ross; Case Farms Ohio Hatchery, Strasburg, OH). […] Briefly, peptides dissolved in water [5 mg (50 mg/kg) or 10 mg (100 mg/kg) in 100 μL] were administered orally twice a day from day 1 (one day before APEC infection) today 7 (5 days post-infection; dpi). On day 2, chickens were infected orally with rifampicin resistant (Rif) APEC O78(27) (1-2×10^9 CFU/chicken). At 7 dpi (day 9), chickens were euthanized, necropsied and cecum and internal organs (lung, liver, heart, and kidney) were assessed for APEC load by plating on MacConkey agar plates containing 50 μg/mL rifampicin. The body weight of chickens was measured at the day of necropsy (day 9). The positive (PC; infected but not treated) and negative (NC; non-infected and non-treated) control chickens were included in both experiments. The statistical significance (P<0.05) of treatment on reduction of APEC load and effect on body weight was calculated using one-way ANOVA followed by Tukey's post-hoc test. […] Bacteria were grown in LB media and MICs were determined as above against respective peptides.

In the next series the test system is APEC. The format is in vivo, chickens. From the text: FIGS. 57A-57D show the APEC load of chickens (at 7 dpi [days post infection]) treated with either peptides P-1 or P-2.
Another series has as its system ST membrane. Kind of series: Confocal microscopy (bacterial cytological profiling). The format is cell-based, Salmonella enterica. The settings on record: 5×MIC, 3 h. As for the experimental part: Mode of action of peptides analyzed through confocal microscopy: To determine the mode of action of P1 and P2, bacterial cytological profiling was conducted using confocal microscopy as described in. […] Incubated bacteria cultures were then centrifuged and re-suspended in 100 μL sterile water. Following suspension, 1 μg/mL of FM4-64 (Invitrogen™ Molecular Probes™) and 5 μM Syto-9 (Invitrogen™ Molecular Probes™) stains were added and incubated for 45 mins […] with 150 rpm. After incubation, the samples were centrifuged, and bacteria was re-suspended in 10 μl sterile water. For microscopic analysis, 3 μL of bacterial suspension was added to glass slides with 1.2% agar and 20% LB media. Untreated ST bacterial culture was used as a control. Leica TCS SP6 confocal scanning microscope (Excitation/emission (nm); FM4-64 (515/640), SYTO-9 (485/498) was used at the Ohio State University's Molecular and Cellular Imaging Center (MCIC; mcic.osu.edu/microscopy).

With PDENK [Peptide P2, PDENK], in series [1], the “Growth of Gram-negative beneficial bacteria, particularly E. coli” value was “inhibited”. Also, the “Growth of Gram-positive beneficial bacteria” value in series [1] was “no effect”. In addition, the “APEC membrane in confocal microscopy (FM4-64/SYTO-9)” value in the series with APEC O78 membrane was “no or minimally visible APEC membrane”. Moreover, the “Reduction of APEC colonization in cecum” value worked out at 0.9 logs in the series with APEC O78 (50 mg/kg dose); 1.3 logs in the series on APEC O78 (100 mg/kg dose); 1.5 log CFU/gm with APEC (50 mg/L in drinking water, 7 dpi). Further, the “Number of chickens positive for APEC in internal organs” value with APEC O78 (100 mg/kg dose) was “reduced the number of chickens positive for APEC”. In the series on APEC (in vivo), the Bodyweight entry was “no significant effect”. The “ST membrane in confocal microscopy (FM4-64 stain)” value with ST membrane is “little to no red stain present”.
